Among the data in ChEMBL document CHEMBL5728197, “KDM1A inhibitors for the treatment of disease” (2021) are IC50 values, retold here.

Each structure is given as a SMILES string. pIC50: −log10 of the molar value. Bounds are passed on as bounds.

By pIC50 is commonly meant the IC50 on a negative log10 scale, so that one unit is a factor of ten.

The target in the assay is Lysine-specific histone demethylase 1A (Homo sapiens, UniProt O60341). Put plainly: Biological Activity Assay: Assaying the inhibition of KDM1A can be determined in vitro, in cultured cells, and in animals. There are a variety of spectrophotometric methods to detect the results of demethylation of methylated lysines, viz., detecting the products of KDM1A demethylase oxidative activity on a peptide fragment of at least 18 amino acid representing the N-terminus of the histone H3 substrate that contains a monomethyl at the fourth lysine residue. Hydrogen peroxide, one product of the KDM1A demethylase reaction, reacts with horseradish peroxidase and dihydroxyphenoxazine (ADHP) to produce the fluorescent compound resorufin (excitation=530-560 nm:emission=590 nm). The KDM1A demethylase enzyme activity can obtained from mammalian cells or tissues expressing KDM1A from an endogenous or recombinant gene and purified or assayed from a whole cell extract. These methods can be used to determine the concentration of the disclosed compounds can inhibit fifty percent of the enzyme activity (IC50).

Turning to `COc1ccc([C@@H]2C[C@H]2NC(=O)COC[C@H](NC(=O)c2ccc(F)cc2)C(=O)N2CCOCC2)cc1`, the negative logarithm of the IC50 (pIC50) was less than 6.00. To `O=C(N[C@@H](COCCN[C@@H]1C[C@H]1c1ccc(F)cc1)C(=O)N1CCOCC1)c1ccc(F)cc1` belongs greater than 6.00.
